Assay results published in ChEMBL document CHEMBL3351318, “Synthesis of novel 4-nitropyrrole-based semicarbazide and thiosemicarbazide hybrids with antimicrobial and anti-tubercular activity” (Bioorg Med Chem Lett, 2014).
In brackets after ≈: the same amount, converted by molar mass.

What was measured:
[1] = system: Staphylococcus aureus; assay: Antimicrobial activity against methicillin-sensitive Staphylococcus aureus ATCC 35556 after 48 hrs by broth dilution technique; assay type: functional; conditions: ATCC 35556, 48 h
[2] = system: Escherichia coli; assay: Ratio of ciprofloxacin MIC to compound MIC for Escherichia coli ATCC 25922 after 48 hrs by broth dilution technique; assay type: functional
[3] = system: Klebsiella pneumoniae; assay: Antimicrobial activity against Klebsiella pneumoniae after 48 hrs by broth dilution technique; assay type: functional
[4] = system: Candida albicans; assay: Ratio of Amphotericin B MIC to compound MIC for Candida albicans after 48 hrs by broth dilution technique; assay type: functional
[5] = system: Vero; assay: Cytotoxicity against African green monkey Vero cells assessed as reduction in cell viability after 72 hrs by MTT assay; assay type: cell-based; conditions: Chlorocebus sabaeus
[6] = system: Candida albicans; assay: Antimicrobial activity against Candida albicans after 48 hrs by agar dilution method; assay type: functional
[7] = system: Mycobacterium tuberculosis; assay: Antitubercular activity against Mycobacterium tuberculosis H37Rv after 7 days by Resazurin micro titer assay; assay type: functional; conditions: 168 h
[8] = system: Staphylococcus aureus; assay: Ratio of ciprofloxacin MIC to compound MIC for methicillin-resistant Staphylococcus aureus ATCC 43866 after 48 hrs by broth dilution technique; assay type: functional
[9] = system: Escherichia coli; assay: Antimicrobial activity against Escherichia coli ATCC 25922 after 48 hrs by broth dilution technique; assay type: functional; conditions: ATCC 25922, 48 h
[10] = system: Staphylococcus aureus; assay: Antimicrobial activity against methicillin-resistant Staphylococcus aureus ATCC 43866 after 48 hrs by broth dilution technique; assay type: functional; conditions: ATCC 43866, 48 h
[11] = system: Staphylococcus aureus; assay: Ratio of ciprofloxacin MIC to compound MIC for methicillin-sensitive Staphylococcus aureus ATCC 35556 after 48 hrs by broth dilution technique; assay type: functional

`Cn1cc([N+](=O)[O-])cc1C(=O)NNC(=S)Nc1ccccc1F` was tested, and the MIC [1] was 0.39 µg/mL (≈ 1.16 µM), the Ratio [2] was 4 and the MIC [3] was 1.56 µg/mL (≈ 4.62 µM). For the same compound, the Ratio [4] was 4, the IC50 [5] was 293 µM and the MIC [6] was 0.78 µg/mL (≈ 2.31 µM). For the same compound, the MIC [7] was 3.2 µg/mL (≈ 9.49 µM), the Ratio [8] was 4 and the MIC [9] was 0.39 µg/mL (≈ 1.16 µM). The MIC [10] was 0.78 µg/mL (≈ 2.31 µM) and the Ratio [11] was 4.

With `COc1ccc(NC(=S)NNC(=O)c2cc([N+](=O)[O-])cn2C)cc1` the MIC [1] was 0.195 µg/mL (≈ 0.558 µM), the Ratio [2] was 4 and the MIC [3] was 1.56 µg/mL (≈ 4.47 µM). It also gave a Ratio [4] of 4, an IC50 [5] of 184 µM and an MIC [6] of 0.78 µg/mL (≈ 2.23 µM). It also gave an MIC [7] of 19.4 µg/mL (≈ 55.5 µM), a Ratio [8] of 8 and an MIC [9] of 0.39 µg/mL (≈ 1.12 µM). The MIC [10] was 0.39 µg/mL (≈ 1.12 µM) and the Ratio [11] was 8.

`Cn1cc([N+](=O)[O-])cc1C(=O)NNC(=S)Nc1ccc([N+](=O)[O-])cc1` gave an MIC [1] of 0.195 µg/mL (≈ 0.535 µM), a Ratio [2] of 4 and an MIC [3] of 1.56 µg/mL (≈ 4.28 µM). It also gave a Ratio [4] of 4, an IC50 [5] of 395 µM and an MIC [6] of 0.78 µg/mL (≈ 2.14 µM). It also gave an MIC [7] of 53.8 µg/mL (≈ 148 µM), a Ratio [8] of 8 and an MIC [9] of 0.39 µg/mL (≈ 1.07 µM). For the same compound, the MIC [10] was 0.39 µg/mL (≈ 1.07 µM) and the Ratio [11] was 8.

Work on `Cn1cc([N+](=O)[O-])cc1C(=O)NNC(=S)Nc1ccc(F)cc1` yielded an MIC [1] of 0.195 µg/mL (≈ 0.578 µM), a Ratio [2] of 4 and an MIC [3] of 1.56 µg/mL (≈ 4.62 µM). It also gave a Ratio [4] of 4, an IC50 [5] of 662 µM and an MIC [6] of 0.78 µg/mL (≈ 2.31 µM). The MIC [7] was 6.7 µg/mL (≈ 19.9 µM), the Ratio [8] was 8 and the MIC [9] was 0.39 µg/mL (≈ 1.16 µM). For the same compound, the MIC [10] was 0.39 µg/mL (≈ 1.16 µM) and the Ratio [11] was 8.

`Cn1cc([N+](=O)[O-])cc1C(=O)NNC(=S)NC1CCCCC1` gave an MIC [1] of 0.39 µg/mL (≈ 1.2 µM), a Ratio [2] of 4 and an MIC [3] of 1.56 µg/mL (≈ 4.79 µM). The Ratio [4] was 4, the IC50 [5] was 352 µM and the MIC [6] was 0.78 µg/mL (≈ 2.4 µM). The MIC [7] was 27.5 µg/mL (≈ 84.5 µM), the Ratio [8] was 4 and the MIC [9] was 0.39 µg/mL (≈ 1.2 µM). For the same compound, the MIC [10] was 0.78 µg/mL (≈ 2.4 µM) and the Ratio [11] was 4.

In the case of `Cn1cc([N+](=O)[O-])cc1C(=O)NNC(=S)Nc1ccc(Cl)cc1`, the MIC [1] is reported as 0.195 µg/mL (≈ 0.551 µM), the Ratio [2] is reported as 4 and the MIC [3] is reported as 1.56 µg/mL (≈ 4.41 µM). The Ratio [4] was 4, the IC50 [5] was 210 µM and the MIC [6] was 0.78 µg/mL (≈ 2.2 µM). The MIC [7] was 16.3 µg/mL (≈ 46.1 µM), the Ratio [8] was 8 and the MIC [9] was 0.39 µg/mL (≈ 1.1 µM). For the same compound, the MIC [10] was 0.39 µg/mL (≈ 1.1 µM) and the Ratio [11] was 8.

For `Cc1ccccc1NC(=S)NNC(=O)c1cc([N+](=O)[O-])cn1C`, the MIC [1] was 0.39 µg/mL (≈ 1.17 µM), the Ratio [2] was 4 and the MIC [3] was 1.56 µg/mL (≈ 4.68 µM). It also gave a Ratio [4] of 4, an IC50 [5] of 471 µM and an MIC [6] of 0.78 µg/mL (≈ 2.34 µM). The MIC [7] was 11.9 µg/mL (≈ 35.7 µM), the MIC [9] was 0.39 µg/mL (≈ 1.17 µM) and the MIC [10] was 0.78 µg/mL (≈ 2.34 µM). For the same compound, the Ratio [11] was 4.
